Experimental findings from PubChem BioAssay (NCI) are described below.

Test systems include A549 NSCLC; ACHN renal; HS 578T breast; MALME-3M melanoma; MDA-MB-435; PC-3 prostate; RXF 393 renal; SF-268 CNS; SK-MEL-5 melanoma; SNB-19 CNS.
Common to all, as to assay: NCI anticancer screen, dose series, 48 h

Several values for one entry are separate records, joined by “and”; a condition that tells them apart may be missing. Equal entries are not always repeated.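 Test compounds were applied to cells in 96-well plates for 48 hours at 5 doses. GI50: concentration for 50% inhibition of growth. TGI marks complete inhibition of growth.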

Turning to `CC/C(=C(/c1ccc(O)cc1)c1ccc(OCCN)cc1)c1ccccc1`, the GI50 is 2.97 µM in the assay with A549 NSCLC; 2.4 µM with ACHN renal; 2.82 µM with HS 578T breast; 1.69 µM with MALME-3M melanoma; 1.63 µM in the assay on MDA-MB-435; 2.66 µM with PC-3 prostate. In addition, the GI50 is 2.17 µM in the assay with RXF 393 renal, 3.09 µM in the assay on SF-268 CNS, 1.97 µM in the assay with SK-MEL-5 melanoma and 4.95 µM with SNB-19 CNS. The TGI amounted to 8.81 µM in the assay on A549 NSCLC; 6.76 µM in the assay on ACHN renal; 12.8 µM in the assay on HS 578T breast; 3.53 µM in the assay on MALME-3M melanoma; 3.42 µM in the assay on MDA-MB-435; 8.26 µM in the assay on PC-3 prostate. Further, the TGI came out at 7.07 µM in the assay with RXF 393 renal, 9.58 µM with SF-268 CNS, 4.3 µM with SK-MEL-5 melanoma and 19 µM in the assay with SNB-19 CNS.
`C#CCN(Cc1nc2cc(C(F)(F)F)ccc2nc1-c1ccccc1)c1ccc(C)cc1`: the GI50 was 9.23 µM in the assay on A549 NSCLC; 10.2 µM with HS 578T breast; 15.7 µM in the assay on MALME-3M melanoma; 2.73 µM with MDA-MB-435; greater than 62.6 µM in the assay on PC-3 prostate; 4.18 µM with RXF 393 renal. Also, the values for the GI50 in the assay on SF-268 CNS, with SK-MEL-5 melanoma and in the assay with SNB-19 CNS were 17 µM, 17 µM and 6.2 µM, respectively. Moreover, the TGI with A549 NSCLC is greater than 93 µM; in the assay on ACHN renal, greater than 33.5 µM; in the assay on HS 578T breast, greater than 54.4 µM; in the assay on MALME-3M melanoma it was 42.3 µM; in the assay with MDA-MB-435, 9.09 µM; in the assay on PC-3 prostate it was greater than 100 µM. Besides, the TGI in the assay with RXF 393 renal was 28 µM; in the assay on SF-268 CNS, greater than 100 µM; with SK-MEL-5 melanoma, greater than 32.4 µM; with SNB-19 CNS it was greater than 36.1 µM.
Consider `CC1=CCCC2C1(C)CCC(C)C2(C)Cc1cc(O)ccc1O` (configuration not stated), for which the GI50 was 7.14 µM in the assay on A549 NSCLC; 14.7 µM in the assay with MALME-3M melanoma; 3.74 µM in the assay with RXF 393 renal; 5.4 µM in the assay on SF-268 CNS; 10.6 µM in the assay on SK-MEL-5 melanoma; 11.5 µM with SNB-19 CNS. In addition, the TGI was 20.5 µM and 21.6 µM with A549 NSCLC; 25.6 µM with ACHN renal; 17.9 µM in the assay with HS 578T breast; 29.2 µM and 35.7 µM in the assay on MALME-3M melanoma; 27 µM in the assay with MDA-MB-435; 18.1 µM in the assay on PC-3 prostate. Also, the TGI is 20.4 µM and 10.9 µM in the assay on RXF 393 renal; 21.1 µM and 20.7 µM with SF-268 CNS; 27.7 µM and 24.9 µM in the assay with SK-MEL-5 melanoma; 27.3 µM and 18.5 µM in the assay with SNB-19 CNS.
In the case of `CCCc1cc(=O)n2c(C(=O)Nc3cccc(C(=O)OCC)c3)c(C(=O)Nc3ccc(F)cc3)sc2n1`, the GI50 in the assay on A549 NSCLC was 4.32 µM; with ACHN renal it was 4.01 µM; in the assay on HS 578T breast, 1.3 µM; with MALME-3M melanoma, 13.1 µM; in the assay on MDA-MB-435, greater than 140 µM; in the assay on PC-3 prostate it was 45.9 µM. Moreover, the GI50 in the assay with RXF 393 renal is 5.3 µM; in the assay with SF-268 CNS it was 26.6 µM; in the assay with SK-MEL-5 melanoma, 75.1 µM; with SNB-19 CNS, 25.5 µM. The TGI was 24.1 µM in the assay on A549 NSCLC; 109 µM with ACHN renal; 6.37 µM with HS 578T breast; 58 µM in the assay with MALME-3M melanoma; greater than 140 µM in the assay on MDA-MB-435; greater than 140 µM with PC-3 prostate. Also, the TGI was 13.4 µM in the assay with RXF 393 renal, 128 µM with SF-268 CNS, greater than 140 µM in the assay with SK-MEL-5 melanoma and 132 µM in the assay on SNB-19 CNS.
Consider `N=C(N)SCc1c2ccccc2c(CSC(=N)N)c2ccccc12`, for which the GI50 was 3.61 µM with A549 NSCLC; 3.99 µM in the assay on ACHN renal; 5.75 µM with HS 578T breast; 6.85 µM with MALME-3M melanoma; 12.1 µM with MDA-MB-435; 10.3 µM with PC-3 prostate. The GI50 was 8.22 µM in the assay on RXF 393 renal, 4.32 µM in the assay on SF-268 CNS, 6.03 µM in the assay on SK-MEL-5 melanoma and 11.5 µM in the assay with SNB-19 CNS. Besides, the TGI was determined as 30.9 µM with A549 NSCLC; 18.5 µM in the assay with ACHN renal; 34.3 µM with HS 578T breast; 25.2 µM with MALME-3M melanoma; 32.6 µM with MDA-MB-435; 23.9 µM in the assay with PC-3 prostate. Moreover, the TGI in the assay on RXF 393 renal was 23.7 µM; in the assay with SF-268 CNS, 26 µM; in the assay with SK-MEL-5 melanoma, 20.2 µM; in the assay on SNB-19 CNS, 25 µM.
Regarding `O=C1NC2C(=CC(O)C(O)C2O)c2cc3c(cc21)OCO3` (configuration not stated), the GI50 was 0.462 µM and 0.273 µM with A549 NSCLC; 0.334 µM in the assay with ACHN renal; 0.426 µM and 0.193 µM in the assay on MALME-3M melanoma; 0.589 µM in the assay on RXF 393 renal; 0.354 µM and 0.337 µM in the assay with SF-268 CNS; 0.282 µM with SK-MEL-5 melanoma. Moreover, the GI50 in the assay with SNB-19 CNS is 0.296 µM and 0.111 µM. The TGI in the assay on A549 NSCLC is 6.87 µM and 4.1 µM; in the assay with ACHN renal, 1.57 µM; in the assay on HS 578T breast, 0.55 µM; in the assay on MALME-3M melanoma, 1.29 µM and 1.86 µM; in the assay with MDA-MB-435 it was 0.965 µM; in the assay with PC-3 prostate it was 2.08 µM. For the same molecule, the TGI was 0.805 µM and 1.43 µM and 2.16 µM in the assay with RXF 393 renal; 3.37 µM and 3.58 µM in the assay with SF-268 CNS; 0.936 µM and 5.01 µM and 1.23 µM in the assay on SK-MEL-5 melanoma; 0.832 µM and 2.12 µM in the assay on SNB-19 CNS.
As for `CCOC(=O)Nc1nc2ccc(Br)cc2s1`, the GI50 in the assay on A549 NSCLC, with ACHN renal, in the assay with HS 578T breast, in the assay with MALME-3M melanoma, with MDA-MB-435 and in the assay with PC-3 prostate was greater than 50 µM throughout. Also, the GI50 with RXF 393 renal, in the assay with SF-268 CNS, in the assay with SK-MEL-5 melanoma and in the assay with SNB-19 CNS was greater than 50 µM in each case. For the same molecule, the TGI in the assay with A549 NSCLC, in the assay with ACHN renal, in the assay with HS 578T breast, with MALME-3M melanoma, with MDA-MB-435 and in the assay with PC-3 prostate was greater than 50 µM in each case. Further, the TGI in the assay with RXF 393 renal, in the assay on SF-268 CNS, in the assay on SK-MEL-5 melanoma and in the assay on SNB-19 CNS was greater than 50 µM each time.
